Data reported in patent US7541364B2, “Pyridomorphinans, pyridazinomorphinans and use thereof” (priority 2003, dated 2009).

Legend:
μ receptor = μ receptor (Cavia porcellus, UniProt A0ACM8Q262); details: read-out: antagonist activity apparent Ki (nM ± SD) μ; inhibition of DAMGO (10 μM) stimulated [35S]GTP-γ-S binding
κ receptor = κ receptor (Cavia porcellus, UniProt P41144); assay: biochemical
Sequence of κ receptor (P41144 whole entry): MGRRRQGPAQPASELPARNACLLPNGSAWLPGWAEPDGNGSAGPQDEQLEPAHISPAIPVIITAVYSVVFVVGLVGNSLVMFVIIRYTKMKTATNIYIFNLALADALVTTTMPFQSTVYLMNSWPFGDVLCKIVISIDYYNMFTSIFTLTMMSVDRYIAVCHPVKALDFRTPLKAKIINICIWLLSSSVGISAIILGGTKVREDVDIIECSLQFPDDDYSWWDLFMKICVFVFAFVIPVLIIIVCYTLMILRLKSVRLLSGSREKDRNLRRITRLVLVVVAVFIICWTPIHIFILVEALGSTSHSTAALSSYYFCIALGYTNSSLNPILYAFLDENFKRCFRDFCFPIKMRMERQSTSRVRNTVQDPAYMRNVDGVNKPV

Sequence of μ receptor (A0ACM8Q262 1-400): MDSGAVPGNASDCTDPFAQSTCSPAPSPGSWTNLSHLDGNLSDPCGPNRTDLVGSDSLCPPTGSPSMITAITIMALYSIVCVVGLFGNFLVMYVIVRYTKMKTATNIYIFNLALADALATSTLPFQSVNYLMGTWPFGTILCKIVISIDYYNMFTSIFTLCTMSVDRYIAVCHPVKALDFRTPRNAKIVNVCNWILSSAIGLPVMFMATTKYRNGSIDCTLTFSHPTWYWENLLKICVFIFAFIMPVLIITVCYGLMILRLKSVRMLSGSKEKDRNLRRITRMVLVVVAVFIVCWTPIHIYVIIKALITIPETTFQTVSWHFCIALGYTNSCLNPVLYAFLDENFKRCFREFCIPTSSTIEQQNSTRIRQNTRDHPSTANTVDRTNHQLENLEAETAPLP

`Oc1ccc2c3c1O[C@H]1c4[nH]c5ccccc5c4C[C@@]4(O)C(C2)N(CC2CC2)CC[C@]314` [1, NTI, reference compound] showed a Ki (μ receptor) of 3.21 ± 0.2 nM and a Ki (κ receptor) of 8.85 ± 0.8 nM.
